Laboratory results reported in the supplement of paper PMC10307832.

Compound: CO[C@H]1C[C@@H]2CC[C@@H](C)[C@@](O)(O2)C(=O)C(=O)N2CCCC[C@H]2C(=O)O[C@H]([C@H](C)C[C@@H]2CC[C@@H](OCCO)[C@H](OC)C2)CC(=O)[C@H](C)/C=C(\C)[C@@H](O)[C@@H](OC)C(=O)[C@H](C)C[C@H](C)/C=C/C=C/C=C/1C [Everolimus]
Test: relative viability (nuclei count vs DMSO), 5 days (fraction); higher = more cells survive
Summary of the method: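 Five library-drug doses spaced by √10 were pinned onto vehicle-anchored 1536-well plates of lung cancer cell lines that had been kept overnight at 37 °C. Cells went 5 days without medium change, then were fixed, permeabilised and Hoechst-stained together, imaged at 4× and counted by MetaXpress. Viability is the ratio of treated-well to vehicle-well nuclei, taken as a median over plates. Plates required control CV below 25% and at least one doubling.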

Cell Line | relative viability (0.01 µM) | relative viability (0.03162 µM) | relative viability (0.1 µM) | relative viability (0.3162 µM) | relative viability (1 µM)
201T | 0.9 | 0.893 | 0.842 | 0.855 | 0.878
A549 | 0.602 | 0.412 | 0.371 | 0.423 | 0.399
A-427 | 0.803 | 0.772 | 0.693 | 0.808 | 0.799
ABC-1 | 0.604 | 0.822 | 0.781 | 0.707 | 0.875
BEN | 0.567 | 0.358 | 0.334 | 0.46 | 0.387
CAL-12T | 0.643 | 0.7 | 0.476 | 0.542 | 0.604
COR-L23 | 0.858 | 0.942 | 0.869 | 0.88 | 0.684
COR-L 105 | 0.667 | 0.682 | 0.592 | 0.552 | 0.663
Calu-6 | 0.956 | 0.922 | 0.892 | 0.88 | 0.988
ChaGo-K-1 | 0.976 | 0.95 | 0.865 | 0.899 | 0.974
EBC-1 | 0.415 | 0.385 | 0.41 | 0.416 | 0.408
EKVX | 0.628 | 0.687 | 0.544 | 0.541 | 0.573
EMC-BAC-2 | 0.689 | 0.606 | 0.55 | 0.473 | 0.565
EPLC-272H | 0.691 | 0.596 | 0.568 | 0.513 | 0.626
H3255 | 0.735 | 0.664 | 0.543 | 0.528 | 0.495
HARA | 0.858 | 0.999 | 0.784 | 0.87 | 0.78
HCC-15 | 0.964 | 0.994 | 0.922 | 0.98 | 0.958
HCC-44 | 1 | 0.974 | 0.985 | 0.969 | 0.957
HCC-78 | 0.905 | 0.919 | 0.659 | 0.858 | 0.644
HCC-366 | 0.955 | 0.961 | 0.935 | 0.929 | 0.972

Cell Line | relative viability (0.01 µM) | relative viability (0.03162 µM) | relative viability (0.1 µM) | relative viability (0.3162 µM) | relative viability (1 µM)
HCC-827 | 1.1 | 1.09 | 1.01 | 1.03 | 1.05
HOP-62 | 0.901 | 0.856 | 0.767 | 0.777 | 0.794
IA-LM | 0.601 | 0.396 | 0.378 | 0.374 | 0.406
LC-2-ad | 0.932 | 1.03 | 0.89 | 0.958 | 0.9
LCLC-97TM1 | 0.771 | 0.82 | 0.709 | 0.892 | 0.775
LCLC-103H | 0.977 | 0.969 | 0.834 | 0.922 | 0.871
LK-2 | 0.844 | 0.554 | 0.546 | 0.491 | 0.487
LOU-NH91 | 0.823 | 0.799 | 0.798 | 0.789 | 0.773
LU99A | 0.557 | 0.644 | 0.626 | 0.591 | 0.679
LXF-289 | 1.09 | 1.07 | 1 | 1.03 | 1.05
NCI-H23 | 0.639 | 0.516 | 0.468 | 0.583 | 0.55
NCI-H322M | 0.688 | 0.728 | 0.733 | 0.694 | 0.722
NCI-H358 | 0.483 | 0.487 | 0.514 | 0.479 | 0.525
NCI-H441 | 0.898 | 0.961 | 0.907 | 0.984 | 0.952
NCI-H460 | 0.951 | 1.03 | 0.957 | 0.921 | 0.939
NCI-H520 | 0.436 | 0.413 | 0.401 | 0.326 | 0.371
NCI-H522 | 0.722 | 0.655 | 0.601 | 0.731 | 0.813
NCI-H596 | 0.699 | 0.628 | 0.54 | 0.697 | 0.588
NCI-H647 | 0.644 | 0.521 | 0.539 | 0.535 | 0.65
NCI-H650 | 0.7 |  | 0.783 | 0.566 | 0.583
